This experiment relates to 242566-281-R-J2-PDC complex spheroid viability. Nature of the experiment: Anticancer human tumor 242566-281-R-J2-PDC patient-derived pancreatic carcinoma cell line growth inhibition [CLK]. To be noted: for viability, T/C: stronger effect = lower value. From the text: A high-throughput screen of multi-cell type tumor spheroids was designed to identify active combinations of […] and targeted small molecules. Complex spheroids include a stromal component modeled by human endothelial cells (HUVEC) and fibroblasts modeled by human mesenchymal stem cells (MSCs). The concentration ranges selected for each drug and investigational agent were based upon clinically achievable concentrations if the clinical Cmax of the agent was known.
Compounds. The drugs and investigational agents: cirtuvivint (SM08502; NSC835563), CC-671 (NSC850746), vemurafenib (NSC761431), tapotoclax (NSC804041), sotorasib (NSC818433), adagrasib (NSC831453), MRTX-1133 (NSC836407), BAY2416964 (NSC825713), copanlisib (NSC816437), inavolisib (NSC800729), abemaciclib (NSC768073), osimertinib (NSC779217), entinostat (NSC756642), eltanexor (KPT-8602, NSC794443), venetoclax (NSC766270), ceralasertib (NSC777638), bortezomib (NSC756655), olaparib (NSC753686), talazoparib (NSC767125), alisertib (NSC759677), peposertib (NSC802822), gemcitabine (NSC613327), 5-fluorouracil (NSC19893), SN-38 (NSC673596), oxaliplatin (NSC266046), paclitaxel (NSC125973), and doxorubicin (NSC123127), were obtained from the National Cancer Institute (NCI) Developmental Therapeutics Program Chemical Repository. The FDA-approved anticancer drug set is available from the Developmental Therapeutics Program at https://dtp.cancer.gov/organization/dscb/obtaining/available plates.htm. […] The stock solutions were prepared in dimethyl sulfoxide (DMSO, Sigma-Aldrich, St. Louis, MO, cat. D2650), except for the platinum complexes which were prepared in saline (Quality Biological, Gaithersburg, MD, cat. 114-055-101), at 800-fold the tested concentration and stored at -70 degrees C prior to their use. All drugs and investigational agents were tested over a range starting from a high concentration at or near the clinical Cmax and decreasing in half-log increments. If the clinical Cmax for an agent had not been determined, the highest concentration tested was 10 microM.
Cell Culture. All cells were maintained in an incubator at 37 degrees C and 5% CO2 with 95% humidity. The PDC lines were cultured according to standard operating procedures established by the NCI PDMR. Briefly, all PDCs were thawed and cultured in Matrigel-coated flasks prepared with a working solution of 1X Ham's F-12 nutrient mix, without supplementation (Invitrogen, Waltham, MA, cat. 11765054), 100 U/mL penicillin-streptomycin (Invitrogen, cat. 15140122), and 2.5% Matrigel (Corning Inc., Corning, NY, cat. 354248) for the first three passages. The 947758-054-R-J2-PDC line was cultured in 6B/Colon 1A media, which includes advanced DMEM/F-12 (Thermo Fisher Scientific, cat. 12634028), 10 mM HEPES (Thermo Fisher Scientific, cat. 15630080), 1X GlutaMAX supplement (Thermo Fisher Scientific, cat. 35050061), 0.1 mg/mL primocin (InvivoGen, cat. ant-pm-2), 10% defined fetal bovine serum, heat inactivated (HyClone Laboratories Inc., cat. SH30070.03HI), 1.25 mM N-Acetyl-L-cysteine (Sigma-Aldrich, cat. A9165), 10 mM nicotinamide (Sigma-Aldrich, cat. N0636), 1X B-27 supplement (Thermo Fisher Scientific, cat. 17504044), 1X N-2 supplement (Thermo Fisher Scientific, cat. 17502048), and 10 microM Y-27632 dihydrochloride (Tocris Bioscience, cat. 1254). The 876862-298-R-J1-PDC was cultured in 6E media, which includes all 6B/Colon 1A media components plus 50% L-WRN conditioned media (ATCC, cat. CRL-3276), 50 ng/mL recombinant human EGF recombinant protein (hEGF; Thermo Fisher Scientific, cat. PHG0311), 10 ng/mL recombinant human fibroblast growth factor 10 (hGFG-10; PeproTech, cat. 100-26), 1 ng/mL recombinant human fibroblast growth factor 2 (hFGF-2; PeproTech, cat. 100-18B), and 1 µM prostaglandin E2 (PGE2; Tocris, cat. 2296). The 227483-062-R1-J1-PDC line was cultured in Panc media, containing all 6E components except hFGF-2, with the addition of 500 nM SB-431542 (Selleckchem, cat. S1067) and 10 nM gastrin (Tocris, cat. 3006). […]

Several values for one entry are separate records, joined by “and”; a condition that tells them apart may be missing. Identical values can stand only once.
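Further: spheroids exposed to compounds for 7 days before readout.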
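Wherever viability, T/C is given: 100% = DMSO vehicle control wells.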

On to `C#Cc1c(F)ccc2cc(O)cc(-c3ncc4c(N5CC6CCC(C5)N6)nc(OCC56CCCN5CC(F)C6)nc4c3F)c12` (configuration not stated), for which the viability, T/C reads like this: (compound 0.0316 µM) 104% and 67.3%; (compound 0.1 µM) 90.1% and 49.6%; (compound 0.316 µM) 76.2% and 43.3%; (compound 1 µM) 58.3% and 26.4%; (compound 3.16 µM) 48.6% and 26%; (compound 10 µM) 40% and 21.3%.
With `C=C(F)C(=O)N1CCN(c2nc(OCC3CCCN3C)nc3c2CCN(c2cccc4cccc(Cl)c24)C3)CC1CC#N` (configuration not stated), the viability, T/C was 88.1% and 109% (compound 0.0316 µM); 81.2% and 96.7% (compound 0.1 µM); 70.4% and 103% (compound 0.316 µM); 116% and 111% (compound 1 µM); 103% and 83% (compound 3.16 µM); 0.27% and 0.16% (compound 10 µM). For the same compound, the IC50 (curve of compound) is 5.35 µM and 5 µM.
Turning to `C=CC(=O)N1CCN(c2nc(=O)n(-c3c(C)ccnc3C(C)C)c3nc(-c4c(O)cccc4F)c(F)cc23)C(C)C1` (configuration not stated), the viability, T/C (compound 0.0316 µM) is 95.5% and 104%; the viability, T/C (compound 0.1 µM) was 80.4% and 92.4%; the viability, T/C (compound 0.316 µM) is 78.5% and 103%; the viability, T/C (compound 1 µM) was 104% and 90.6%; the viability, T/C (compound 3.16 µM) was 102% and 88.7%; the viability, T/C (compound 10 µM) was 70.8% and 77.6%. The IC50 (curve of compound) was above 10 µM.
For the compound `C=CC(=O)Nc1cc(Nc2nccc(-c3cn(C)c4ccccc34)n2)c(OC)cc1N(C)CCN(C)C`, the viability, T/C (compound 0.000949 µM) is 98.9% and 87.5%; the viability, T/C (compound 0.003 µM) is 97.1% and 95.4%; the viability, T/C (compound 0.00949 µM) was 94.8% and 88.7%; the viability, T/C (compound 0.03 µM) was 95.2% and 96.2%; the viability, T/C (compound 0.0949 µM) was 95.1% and 107%; the viability, T/C (compound 0.3 µM) is 69.7% and 97.1%. Moreover, the IC50 (curve of compound) is above 0.3 µM.
Turning to `CC(C)CC(NC(=O)C(Cc1ccccc1)NC(=O)c1cnccn1)B(O)O` (configuration not stated), the viability, T/C reads like this: (compound 0.000949 µM) 99.7% and 88.2%; (compound 0.003 µM) 40% and 80.3%; (compound 0.00949 µM) 1.73% and 1.58%; (compound 0.03 µM) 0.47% and 0.59%; (compound 0.0949 µM) 0.33% and 0.52%; (compound 0.3 µM) 0.18% and 0.32%. The half-inhibitory concentration (IC50) (curve of compound) was 0.00248 µM and 0.00467 µM.
Turning to `CC(CO)NC(=O)c1cc(-c2ccc(Cl)cc2)nn(-c2cnn(C)c2)c1=O` (configuration not stated), the viability, T/C runs as follows: (compound 0.0316 µM) 94.4% and 97.3%; (compound 0.1 µM) 96.2% and 94.5%; (compound 0.316 µM) 85.6% and 102%; (compound 1 µM) 116% and 98.1%; (compound 3.16 µM) 131% and 97.1%; (compound 10 µM) 75.8% and 82.5%. Further, the IC50 (curve of compound) is above 10 µM.
Consider `CC(Nc1ccc2c(c1)OCCn1cc(N3C(=O)OCC3C(F)F)nc1-2)C(N)=O` (configuration not stated), for which the viability, T/C was 98.6% and 96.1% (compound 0.0316 µM); 91.6% and 97.8% (compound 0.1 µM); 71.3% and 89.9% (compound 0.316 µM); 51.9% and 68.2% (compound 1 µM); 36.4% and 46.8% (compound 3.16 µM); 21.7% and 32.6% (compound 10 µM). Also, the IC50 (curve of compound) was 1.18 µM and 2.54 µM.
As for `CC1(C)CCC(CN2CCN(c3ccc(C(=O)NS(=O)(=O)c4ccc(NCC5CCOCC5)c([N+](=O)[O-])c4)c(Oc4cnc5[nH]ccc5c4)c3)CC2)=C(c2ccc(Cl)cc2)C1`, the viability, T/C is, setting by setting: (compound 0.0316 µM) 110% and 84.2%; (compound 0.1 µM) 89.7% and 93.9%; (compound 0.316 µM) 109% and 102%; (compound 1 µM) 117% and 132%; (compound 3.16 µM) 109% and 122%; (compound 10 µM) 14.1% and 73.1%. Besides, where the note is “curve of compound”, the half-maximal inhibitory concentration (IC50) was 6.41 µM and > 10 µM.
Consider `CCCS(=O)(=O)Nc1ccc(F)c(C(=O)c2c[nH]c3ncc(-c4ccc(Cl)cc4)cc23)c1F`, for which the viability, T/C by setting is: (compound 0.0316 µM) 109% and 86.7%; (compound 0.1 µM) 104% and 98.7%; (compound 0.316 µM) 94% and 81.7%; (compound 1 µM) 106% and 86%; (compound 3.16 µM) 104% and 115%; (compound 10 µM) 6.44% and 6.7%. In addition, the IC50 (curve of compound) was 5.96 µM and 5.64 µM.
Take `CCN1CCN(Cc2ccc(Nc3ncc(F)c(-c4cc(F)c5nc(C)n(C(C)C)c5c4)n3)nc2)CC1`: the viability, T/C is 102% and 83% (compound 0.00316 µM); 102% and 94.6% (compound 0.01 µM); 90.6% and 95.6% (compound 0.0316 µM); 103% and 89% (compound 0.1 µM); 118% and 100% (compound 0.316 µM); 132% and 152% (compound 1 µM). Moreover, the half-inhibitory concentration (IC50) (curve of compound) is above 1 µM.
Turning to `CCc1c2c(nc3ccc(O)cc13)-c1cc3c(c(=O)n1C2)COC(=O)[C@]3(O)CC`, the viability, T/C runs as follows: (compound 0.00316 µM) 87.2% and 108%; (compound 0.01 µM) 56.3% and 60%; (compound 0.0316 µM) 30.8% and 39%; (compound 0.1 µM) 12.3% and 15.7%; (compound 0.316 µM) 5.72% and 5.99%; (compound 1 µM) 2.95% and 2.38%. Moreover, the 50% inhibitory concentration (IC50) (curve of compound) is 0.0134 µM and 0.0169 µM.
With `CN1CCN(c2cc(C(=O)Nc3cc4cc(-c5cnn(C)c5)ccc4cn3)ccn2)CC1`, the viability, T/C is 101% [middle of 12 runs] (compound 0.0316 µM); 90.2% [middle of 12 runs] (compound 0.1 µM); 4.87% [middle of 12 runs] (compound 1 µM); 7.54% [middle of 12 runs] (compound 3.16 µM); 1.65% [middle of 11 runs] (compound 10 µM). In addition, the IC50 (compound alone, run of 07/31/2023) is 230 nM [middle of 12 runs].
Consider `COC1C=CCC(C)C(C)S(=O)(=O)NC(=O)c2ccc3c(c2)N(CC2CCC21)CC1(CCCc2cc(Cl)ccc21)CO3` (configuration not stated), for which the viability, T/C (compound 0.0316 µM) is 91.1% and 108%; the viability, T/C (compound 0.1 µM) was 69.8% and 78.5%; the viability, T/C (compound 0.316 µM) was 82.5% and 70.2%; the viability, T/C (compound 1 µM) was 92.6% and 93.4%; the viability, T/C (compound 3.16 µM) was 82.5% and 81.2%; the viability, T/C (compound 10 µM) was 19.6% and 30.2%. Moreover, for the setting “curve of compound”, the half-inhibitory concentration (IC50) is 5.74 µM and 6.43 µM.
On to `COc1c(OCCCN2CCOCC2)ccc2c3n(c(=NC(=O)c4cnc(N)nc4)nc12)CCN3`, for which the viability, T/C is, setting by setting: (compound 0.00316 µM) 86.1% and 72.8%; (compound 0.01 µM) 73.2% and 74.1%; (compound 0.0316 µM) 44.2% and 56.4%; (compound 0.1 µM) 21.8% and 30.8%; (compound 0.316 µM) 12.3% and 19.2%; (compound 1 µM) 6.02% and 16.4%. Moreover, for the setting “curve of compound”, the IC50 was 0.0258 µM and 0.0432 µM.
For `Cn1ncnc1[C@H]1c2n[nH]c(=O)c3cc(F)cc(c23)N[C@@H]1c1ccc(F)cc1`, the viability, T/C is, setting by setting: (compound 0.000316 µM) 106% and 93.2%; (compound 0.001 µM) 93.8% and 102%; (compound 0.00316 µM) 111% and 107%; (compound 0.01 µM) 107% and 91%; (compound 0.0316 µM) 96.3% and 95.3%; (compound 0.1 µM) 87.1% and 99.8%. Moreover, the IC50 (curve of compound) was above 0.1 µM.
Take `NC(=O)C(=Cn1cnc(-c2cc(C(F)(F)F)cc(C(F)(F)F)c2)n1)c1cncnc1`: the viability, T/C is 108% and 96.6% (compound 0.00949 µM); 103% (compound 0.03 µM); 99.7% and 142% (compound 0.0949 µM); 99% and 152% (compound 0.3 µM); 55.8% and 101% (compound 0.949 µM); 25.7% and 58.9% (compound 3 µM). For the same compound, the half-inhibitory concentration (IC50) (curve of compound) is 1.19 µM and > 3 µM.
Regarding `Nc1ccccc1NC(=O)c1ccc(CNC(=O)OCc2cccnc2)cc1`, the viability, T/C was 97.8% and 80.4% (compound 0.0316 µM); 82% and 115% (compound 0.1 µM); 98.7% and 85.3% (compound 0.316 µM); 84.6% and 107% (compound 1 µM); 68% and 110% (compound 3.16 µM); 14.5% and 41.5% (compound 10 µM). Besides, the IC50 (curve of compound) is 4.64 µM and 8.46 µM.

What is called viability, T/C is the ratio of treated to control. What is called IC50 is the midpoint of a concentration-inhibition curve.
